Measurements taken from US10570131B2, “Heterocyclic compounds and their use in preventing or treating bacterial infections” (MUTABILIS, priority 2015, dated 2020).
Where a name gives a salt, the structure may show the parent alone.

Experiments:
CTX-M-15 = target: T1, CTX-M-15 (Escherichia coli, UniProt Q9EXV5); assay: β-lactamase inhibitory activity, IC50 (nitrocefin hydrolysis); assay type: biochemical
T1 construct: made in house; host or cells: E. coli expression vector
Method: (§1) Method 1: β-lactamase Inhibitory Activity, Determination of IC50 (Table 1)
(§2) Enzyme activity was monitored by spectrophotometric measurement of nitrocefin (NCF—TOKU-E, N005) hydrolysis at 485 nm, at room temperature and in assay buffer A: 100 mM Phosphate pH7, 2% glycerol and 0.1 mg/mL Bovine serum albumin (Sigma, B4287). Enzymes were cloned in E. coli expression vector, expressed and purified in house using classical procedures. To a transparent polystyrene plate (Corning, 3628) were added in each well 5 μL DMSO or inhibitor dilutions in DMSO and 80 μL enzyme in buffer A. Plates were immediately read at 485 nm in a microplate spectrophotometer (BioTek, PowerWave HT) to enable background subtraction. After 30 min of pre-incubation at room temperature, 15 μL of NCF (200 μM final) were finally added in each well. Final enzyme concentrations were 0.1 nM (TEM-1), 0.075 nM (SHV-1), 0.4 nM (CTX-M-15), 1 nM (KPC-2), 0.2 nM (P99 AmpC), 0.2 nM (CMY-37), 0.4 nM (AmpC P. aeruginosa), 0.2 nM (OXA-1), 1.2 nM (OXA-11), 0.4 nM (OXA-15) and 0.3 nM (OXA-48). After 20 min incubation at room temperature, plates were once again read at 485 nm. Enzyme activity was obtained by subtracting the final signal by the background, and was converted to enzyme inhibition using non inhibited wells. IC50 curves were fitted to a classical Langmuir equilibrium model with Hill slope using XLFIT (IDBS).

KPC-2 = target: T2, KPC-2 (Klebsiella pneumoniae, UniProt Q9F663); assay: as above; assay type: biochemical
T2 construct: made in house; host or cells: E. coli expression vector
Method: as §1, §2

OXA-1 = target: T3, OXA-1 (Escherichia coli, UniProt P13661); assay: as above; assay type: biochemical
T3 construct: made in house; host or cells: E. coli expression vector
Method: as §1, §2

OXA-11 = target: T4, OXA-11 (Pseudomonas aeruginosa, UniProt Q06778); assay: as above; assay type: biochemical
T4 construct: made in house; host or cells: E. coli expression vector
Method: as §1, §2

OXA-48 = target: T5, OXA-48 (Klebsiella pneumoniae, UniProt Q6XEC0); assay: as above; assay type: biochemical
T5 construct: made in house; host or cells: E. coli expression vector
Method: as §1, §2

SHV-1 = target: T6, SHV-1 (Klebsiella pneumoniae, UniProt P0AD64); assay: as above; assay type: biochemical
T6 construct: made in house; host or cells: E. coli expression vector
Method: as §1, §2

TEM-1 = target: T7, TEM-1 (Escherichia coli, UniProt P62593); assay: as above; assay type: biochemical; settings: class (A); 30 min pre-incubation; NCF 200 μM
T7 construct: made in house; host or cells: E. coli expression vector
Method: as §1, §2

AmpC (PAE) = target: T8, AmpC (PAE) (Pseudomonas aeruginosa, UniProt P24735); assay: biochemical; set-up: species or system P. aeruginosa
T8 construct: made in house; host or cells: E. coli expression vector
Method: as §1, §2

E. cloacae P99 [1] = assay: MIC of compounds alone, broth microdilution; assay type: cell-based; settings: Enterobacter cloacae; strain P99 (AmpC); read-out: MIC compounds of the invention alone
Method: (§3) Compounds of the present invention were assessed against genotyped bacterial strains alone or in combination with the β-lactam ceftazidime (CAZ). […] Briefly, compounds alone according to the invention were prepared in DMSO and spotted (2 μL each) on sterile polystyrene plates (Corning, 3788). […] Log phase bacterial suspensions were adjusted to a final density of 5×10^5 cfu/mL in cation-adjusted Mueller-Hinton broth (Becton-Dickinson) and added to each well (98 μL). Microplates were incubated for 16-20 h at 35° C. in ambient air. The MIC of the compounds was defined as the lowest concentration of said compounds that prevented bacterial growth as read by visual inspection.

E. coli 190317 [2] = assay: MIC of compounds alone, broth microdilution; assay type: cell-based; settings: Escherichia coli; strain 190317 (TEM-1, SHV-12, CTX-M-15, OXA-1); read-out: MIC compounds of the invention alone
Method: as §3

E. coli RGN238 = assay: MIC of compounds alone, broth microdilution; assay type: cell-based; settings: Escherichia coli, RGN238, read-out: MIC compounds of the invention alone
Method: as §3

P. aeruginosa CIP107051 = assay: MIC of compounds alone, broth microdilution; assay type: cell-based; settings: Pseudomonas aeruginosa; strain CIP107051 (TEM-24); read-out: MIC compounds of the invention alone
Method: as §3

E. cloacae 260508 = assay: MIC of ceftazidime alone and in combination with compounds (synergy), broth microdilution; assay type: cell-based; settings: MIC of ceftazidime with compound fixed at 4 μg/mL; strain 260508 (TEM-1, CTX-M-15)
K. pneumoniae 160143 = assay: as above; assay type: cell-based; settings: MIC of ceftazidime with compound fixed at 4 μg/mL; strain 160143 (TEM-1, SHV-1, CTX-M-15, KPC-2, OXA-1)
K. pneumoniae UFR68 = assay type: cell-based; settings: MIC of ceftazidime with compound fixed at 4 μg/mL; strain UFR68 (TEM-1, SHV-11, CTX-M-15, KPC-3)
E. cloacae P99 [3] = assay: MIC of ceftazidime alone and in combination with compounds (synergy), broth microdilution; assay type: cell-based; settings: MIC of ceftazidime with compound fixed at 4 μg/mL; strain P99 (AmpC)
E. cloacae UFR70 = assay: as above; assay type: cell-based; settings: MIC of ceftazidime with compound fixed at 4 μg/mL; strain UFR70 (TEM-1, CTX-M-15, CMY-2, OXA-1, Porin loss)
E. coli UFR18 = assay: as above; assay type: cell-based; settings: MIC of ceftazidime with compound fixed at 4 μg/mL; strain UFR18 (CTX-M-15, OXA-204)
K. oxytoca UFR21 = assay: as above; assay type: cell-based; settings: MIC of ceftazidime with compound fixed at 4 μg/mL; strain UFR21 (TEM-1, CTX-M-15, OXA-48)
K. pneumoniae UFR24 = assay type: cell-based; settings: MIC of ceftazidime with compound fixed at 4 μg/mL; strain UFR24 (TEM-1, SHV-2, SHV-11, OXA-1, OXA-48, OXA-47)
E. coli 190317 [4] = assay: MIC of ceftazidime alone and in combination with compounds (synergy), broth microdilution; assay type: cell-based; settings: MIC of ceftazidime with compound fixed at 4 μg/mL; strain 190317 (TEM-1, SHV-12, CTX-M-15, OXA-1)
E. coli UFR32 = assay: as above; assay type: cell-based; settings: MIC of ceftazidime with compound fixed at 4 μg/mL; strain UFR32 (TEM-1, VEB-1, OXA-10)

T2 sequence (Q9F663 25-293 limits assumed): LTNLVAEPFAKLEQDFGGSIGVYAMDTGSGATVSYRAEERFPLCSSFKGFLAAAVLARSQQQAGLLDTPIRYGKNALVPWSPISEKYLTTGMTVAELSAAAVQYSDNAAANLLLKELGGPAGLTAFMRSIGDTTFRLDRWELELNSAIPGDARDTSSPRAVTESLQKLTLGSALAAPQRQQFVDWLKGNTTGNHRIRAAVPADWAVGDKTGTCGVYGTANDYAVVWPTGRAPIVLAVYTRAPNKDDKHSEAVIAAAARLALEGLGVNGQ
T7 sequence (P62593 24-286 limits assumed): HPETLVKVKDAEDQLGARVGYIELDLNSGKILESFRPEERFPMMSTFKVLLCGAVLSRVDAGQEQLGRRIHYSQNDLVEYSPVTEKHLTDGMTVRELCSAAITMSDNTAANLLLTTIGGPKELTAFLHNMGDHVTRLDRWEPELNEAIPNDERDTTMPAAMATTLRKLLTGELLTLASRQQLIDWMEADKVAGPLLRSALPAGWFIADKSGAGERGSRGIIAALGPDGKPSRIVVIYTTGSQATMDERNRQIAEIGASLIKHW
T5 sequence (Q6XEC0 23-265 limits assumed): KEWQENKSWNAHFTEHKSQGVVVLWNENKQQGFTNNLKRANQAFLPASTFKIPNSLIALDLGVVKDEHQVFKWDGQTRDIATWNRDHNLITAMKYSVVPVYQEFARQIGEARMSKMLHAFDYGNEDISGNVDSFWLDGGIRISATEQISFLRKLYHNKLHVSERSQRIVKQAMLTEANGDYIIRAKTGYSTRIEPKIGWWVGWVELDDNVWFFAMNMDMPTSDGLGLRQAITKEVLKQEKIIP
T8 sequence (P24735 27-397): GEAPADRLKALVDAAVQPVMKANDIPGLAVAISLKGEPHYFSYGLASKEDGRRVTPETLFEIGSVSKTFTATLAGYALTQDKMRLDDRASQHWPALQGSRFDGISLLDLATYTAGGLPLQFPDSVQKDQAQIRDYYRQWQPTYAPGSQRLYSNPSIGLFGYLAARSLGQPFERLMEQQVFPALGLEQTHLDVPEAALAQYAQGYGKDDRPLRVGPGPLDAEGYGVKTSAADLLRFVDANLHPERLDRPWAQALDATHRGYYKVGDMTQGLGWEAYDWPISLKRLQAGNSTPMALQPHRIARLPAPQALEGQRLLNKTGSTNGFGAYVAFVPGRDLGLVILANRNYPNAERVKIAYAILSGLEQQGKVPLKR
T1 sequence (Q9EXV5 entry or part of it): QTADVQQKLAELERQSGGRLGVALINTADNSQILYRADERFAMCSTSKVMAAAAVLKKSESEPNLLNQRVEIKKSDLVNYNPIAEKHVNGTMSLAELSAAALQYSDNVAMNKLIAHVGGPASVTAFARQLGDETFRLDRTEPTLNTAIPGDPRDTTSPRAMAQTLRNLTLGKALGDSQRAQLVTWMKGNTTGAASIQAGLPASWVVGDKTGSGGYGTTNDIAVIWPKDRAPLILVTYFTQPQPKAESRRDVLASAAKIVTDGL
T6 sequence (P0AD64 22-286): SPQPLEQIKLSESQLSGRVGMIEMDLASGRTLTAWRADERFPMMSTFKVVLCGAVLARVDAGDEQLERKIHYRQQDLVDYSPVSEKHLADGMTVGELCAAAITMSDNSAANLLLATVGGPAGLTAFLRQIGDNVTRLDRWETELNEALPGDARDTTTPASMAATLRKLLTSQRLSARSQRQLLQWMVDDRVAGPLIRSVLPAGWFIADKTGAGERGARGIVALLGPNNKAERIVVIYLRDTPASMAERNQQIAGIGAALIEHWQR
T3 sequence (P13661 26-276): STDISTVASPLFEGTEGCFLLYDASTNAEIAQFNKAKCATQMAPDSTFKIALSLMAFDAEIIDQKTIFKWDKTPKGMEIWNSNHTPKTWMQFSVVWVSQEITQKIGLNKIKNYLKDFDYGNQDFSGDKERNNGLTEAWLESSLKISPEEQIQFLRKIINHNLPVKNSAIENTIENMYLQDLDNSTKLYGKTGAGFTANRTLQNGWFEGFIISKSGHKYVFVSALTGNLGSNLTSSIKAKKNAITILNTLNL
T4 sequence (Q06778 21-266): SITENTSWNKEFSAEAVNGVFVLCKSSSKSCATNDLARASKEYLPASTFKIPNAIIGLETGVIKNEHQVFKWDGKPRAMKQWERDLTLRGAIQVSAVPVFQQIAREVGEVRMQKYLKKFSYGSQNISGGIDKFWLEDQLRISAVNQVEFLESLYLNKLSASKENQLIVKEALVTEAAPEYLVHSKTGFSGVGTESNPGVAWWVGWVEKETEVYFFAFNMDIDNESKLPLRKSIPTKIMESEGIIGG

Row | Compound | IC50 (CTX-M-15) | IC50 (KPC-2) | IC50 (OXA-1) | IC50 (OXA-11) | IC50 (OXA-48) | IC50 (SHV-1) | IC50 (TEM-1) | IC50 (AmpC (PAE)) | MIC (E. cloacae P99 [1]) | MIC (E. coli 190317 [2]) | MIC (E. coli RGN238) | MIC (P. aeruginosa CIP107051) | MIC, combination of CAZ and compounds of the invention at 4 μg/mL (E. cloacae 260508) | MIC, combination of CAZ and compounds of the invention at 4 μg/mL (K. pneumoniae 160143) | MIC, combination of CAZ and compounds of the invention at 4 μg/mL (K. pneumoniae UFR68) | MIC, combination of CAZ and compounds of the invention at 4 μg/mL (E. cloacae P99 [3]) | MIC, combination of CAZ and compounds of the invention at 4 μg/mL (E. cloacae UFR70) | MIC, combination of CAZ and compounds of the invention at 4 μg/mL (E. coli UFR18) | MIC, combination of CAZ and compounds of the invention at 4 μg/mL (K. oxytoca UFR21) | MIC, combination of CAZ and compounds of the invention at 4 μg/mL (K. pneumoniae UFR24) | further results
1 | NC[C@@H]1CC(=NOCC(N)=O)[C@@H]2CN1C(=O)N2OS(=O)(=O)O (mixture of isomers) [Example 5, sodium and 2,2,2-trifluroacetate [(2S,5S)-4-(2-amino-2-oxo-ethoxy)imino-2-(azaniumylmethyl)-7-oxo-1,6-diazabicyclo[3.2.1]octan-6-yl] sulfate] | 130 nM | 1800 nM | 370 nM | 430 nM | 180 nM | 64 nM | 110 nM | 12000 nM | 0.063 µg/mL | 0.25 µg/mL | > 32 µg/mL | 4 µg/mL | <0.25 µg/mL | 0.5 µg/mL | 1 µg/mL | <0.25 µg/mL | 1 µg/mL | <0.25 µg/mL | ≤0.25 µg/mL | 1 µg/mL | MIC, combination of CAZ and compounds of the invention at 4 μg/mL (E. coli 190317 [4]): <0.25 µg/mL; MIC, combination of CAZ and compounds of the invention at 4 μg/mL (E. coli UFR32): ≤0.25 µg/mL
2 | NC[C@@H]1CC(=O)[C@@H]2CN1C(=O)N2OS(=O)(=O)O [Example 6, 2,2,2-trifluroacetate and sodium [(2S,5S)-2-(azaniumylmethyl)-4,7-dioxo-1,6-diazabicyclo[3.2.1]octan-6-yl] sulfate] | 510 nM | 5100 nM | 1200 nM | 1600 nM | 840 nM | 340 nM | 280 nM | 38000 nM | 1 µg/mL | 1 µg/mL | > 32 µg/mL | 8 µg/mL | ≤0.25 µg/mL | 2 µg/mL | 1 µg/mL | <0.25 µg/mL | 2 µg/mL | ≤0.25 µg/mL | ≤0.25 µg/mL | 4 µg/mL | MIC, combination of CAZ and compounds of the invention at 4 μg/mL (E. coli 190317 [4]): <0.25 µg/mL; MIC, combination of CAZ and compounds of the invention at 4 μg/mL (E. coli UFR32): <0.25 µg/mL
3 | CNC(=O)CON=C1C[C@@H](C(N)=O)N2C[C@@H]1N(OS(=O)(=O)[O-])C2=O.[Na+] (mixture of isomers) [Example 2, sodium [(2S,5S)-2-carbamoyl-4-[2-(methylamino)-2-oxo-ethoxy]imino-7-oxo-1,6-diazabicyclo[3.2.1]octan-6-yl] sulfate] | 0.76 nM | 3.9 nM | 6.1 nM | 6.8 nM | 3.5 nM | 0.74 nM | 1.7 nM | 110 nM | > 32 µg/mL | 4 µg/mL | > 32 µg/mL | > 32 µg/mL | 1 µg/mL | 8 µg/mL | 64 µg/mL | 4 µg/mL | 8 µg/mL | 1 µg/mL | 2 µg/mL | 2 µg/mL | MIC, combination of CAZ and compounds of the invention at 4 μg/mL (E. coli 190317 [4]): ≤0.125 µg/mL; MIC, combination of CAZ and compounds of the invention at 4 μg/mL (E. coli UFR32): 0.5 µg/mL
